System: subjects suffering from the Insomnia Disorder adult insomnia
Experiment: Polysomnography crossover study of sleep parameters (SE, TST, WASO, LPS, Stage N2)
Type: in vivo, human
Conditions: for Latency to Persistent Sleep (LPS) Least Squares Means (STDE) / Sleep Efficiency (SE) Least Squares Means (STDE) / Time Spent in Sleep Stage N2 Least Squares Means (STDE) / Total Sleep Time (TST) Least Squares Means (STDE) / Wake after Sleep Onset (WASO) Least Squares Means (STDE): average of Night 1 and Night 2, full analysis population; for WASO, decrease in the difference of LSMs: stated as decrease
Description: The study randomized up to about 30 subjects to achieve at least about 24 completers (i.e., subjects who completed all 5 Dosing Periods). The subjects included otherwise healthy males and females aged 18 to 64 years, inclusive, with a history of adult insomnia (insomnia disorder as defined by DSM-5 criteria) and who otherwise had no significant medical or psychiatric history.
Compound (1C) was administered orally in an immediate release tablet comprising the pharmaceutically acceptable excipients croscarmellose sodium (FMC Health and Nutrition, Philadelphia, Pa.), hydroxypropylcellulose (Ashland Inc., Covington, Ky.), microcrystalline cellulose (Sigma-Aldrich, St. Louis, Mo.), and mannitol (SPI Pharma, Wilmington, Del.). […] Placebo tablets matching the Compound (1C) tablets were orally administered in the same way. The placebo tablets comprised the four above-described pharmaceutically acceptable excipients but with no Compound (1C).
During a baseline visit (Days −7 to −6), successful subjects arrived at a clinical unit in the afternoon or evening of Day −7. At that time, they began a stay of two consecutive nights during which each subject underwent continuous PSG recording for eight hours on the first night (Night 1) to assess eligibility criteria and to screen out subjects with sleep apnea or periodic limb movements with arousal. Still-successful subjects underwent another eight hours of continuous PSG recording on the second night (Night 2), which determined if a subject met the sleep-eligibility criteria based on the average of data obtained on Nights 1 and 2 of the baseline visit. During the baseline visit, subjects also practiced and took a post-sleep test used in this study, i.e., the digit symbol substitution test (“DSST”), and familiarized themselves with the Karolinska Sleepiness Scale (“KSS”) evaluation form. To assess a subject's perception of the “quality” and “quantity” of sleep, a post-sleep questionnaire was used to ask questions such as “how many minutes did it take you to fall asleep last night after you got into bed and the lights were turned off?”, “how many times did you awaken during the night?”, and “on a scale from 1 to 10, with 1 being poor and 10 being excellent, how would you rate the quality of your sleep last night?”. Subjects who met all eligibility criteria after the baseline visit returned approximately seven days later to enter the treatment period (Dosing Periods 1-5).
A summary of the PSG recording procedure that was used is as follows. Standard placements for EEG electrodes were derived according to the international 10-20 system (see, e.g., Jasper, “The ten-twenty electrode system of the international federation,” Electroencephalography Clin. Neurophys. 10:371-375 (1958)) with the exception of the change of the A1-A2 labels to M1-M2, pursuant to the AASM Manual for Scoring of Sleep (Berry et al., “The AASM Manual for the Scoring of Sleep and Associated Events: Rules, Terminology and Technical Specifications,” Version 2.0.3, American Academy of Sleep Medicine, Darien, Ill., (2014)). This system requires that electrodes be positioned in measured relationships to landmark anatomical points. Standard placements for EOG, submental EMG electrodes, anterior tibialis EMG electrodes, and airflow sensors were consistent with the AASM Manual for Scoring of Sleep.
(2) The 27-day treatment period included five dosing periods (Dosing Periods 1-5) that were at least 5 days apart. Once continued eligibility was confirmed, subjects were randomized as to treatment upon check-in on Day 1. […] The time subjects spent in bed in an undisturbed environment was fixed at 8 hours (i.e., 960 PSG epochs of 30 seconds duration per epoch).
Following the evening-time dosing with study drug, subjects underwent eight hours of continuous PSG recording. […]

[1] = all treatment groups (0.5, 1.0, 3.0, 6.0 mg)

O=C(O)c1nc2ccccc2n([C@H]2C[C@H]3CCC[C@@H](C2)N3C2CC3CCCC(C3)C2)c1=O (stereo partly shown) [Compound (1C)]
Latency to Persistent Sleep (LPS) Least Squares Means (STDE) (0.5 mg oral): −25.9 (2.78) min | Sleep Efficiency (SE) Least Squares Means (STDE) (0.5 mg oral): 12.1 (1.02) % | Time Spent in Sleep Stage N2 Least Squares Means (STDE) (0.5 mg oral): 57.1 (5.53) min | Total Sleep Time (TST) Least Squares Means (STDE) (0.5 mg oral): 57.9 (4.88) min | Wake after Sleep Onset (WASO) Least Squares Means (STDE) (0.5 mg oral): −37.1 (4.54) min | Latency to Persistent Sleep (LPS) Difference of Least Squares Means vs. Placebo (0.5 mg vs. Placebo): 2.6 min | Sleep Efficiency (SE) Difference of Least Squares Means vs. Placebo (0.5 mg vs. Placebo): 4.1% | Time Spent in Sleep Stage N2 Difference of Least Squares Means vs. Placebo (0.5 mg vs. Placebo): 33.6 min | Total Sleep Time (TST) Difference of Least Squares Means vs. Placebo (0.5 mg vs. Placebo): 19.8 min | Wake after Sleep Onset (WASO) Difference of Least Squares Means vs. Placebo (0.5 mg vs. Placebo): -24.3 min | WASO, decrease in the difference of LSMs (0.5 mg vs. placebo): 24.3 min | Latency to Persistent Sleep (LPS) Least Squares Means (STDE) (1.0 mg oral): −29.9 (2.78) min | Sleep Efficiency (SE) Least Squares Means (STDE) (1.0 mg oral): 14.7 (1.02) % | Time Spent in Sleep Stage N2 Least Squares Means (STDE) (1.0 mg oral): 69.2 (5.53) min | Total Sleep Time (TST) Least Squares Means (STDE) (1.0 mg oral): 70.3 (4.88) min | Wake after Sleep Onset (WASO) Least Squares Means (STDE) (1.0 mg oral): −44.5 (4.54) min | Latency to Persistent Sleep (LPS) Difference of Least Squares Means vs. Placebo (1.0 mg vs. Placebo): -1.4 min | Sleep Efficiency (SE) Difference of Least Squares Means vs. Placebo (1.0 mg vs. Placebo): 6.7% | Time Spent in Sleep Stage N2 Difference of Least Squares Means vs. Placebo (1.0 mg vs. Placebo): 45.7 min | Total Sleep Time (TST) Difference of Least Squares Means vs. Placebo (1.0 mg vs. Placebo): 32.3 min | Wake after Sleep Onset (WASO) Difference of Least Squares Means vs. Placebo (1.0 mg vs. Placebo): -31.8 min | WASO, decrease in the difference of LSMs (1.0 mg vs. placebo): 31.8 min | Latency to Persistent Sleep (LPS) Least Squares Means (STDE) (3.0 mg oral): −29.0 (2.82) min | Sleep Efficiency (SE) Least Squares Means (STDE) (3.0 mg oral): 17.6 (1.03) % | Time Spent in Sleep Stage N2 Least Squares Means (STDE) (3.0 mg oral): 132.1 (5.6) min | Total Sleep Time (TST) Least Squares Means (STDE) (3.0 mg oral): 84.5 (4.96) min | Wake after Sleep Onset (WASO) Least Squares Means (STDE) (3.0 mg oral): −59.1 (4.60) min | Latency to Persistent Sleep (LPS) Difference of Least Squares Means vs. Placebo (3.0 mg vs. Placebo): -0.5 min | Sleep Efficiency (SE) Difference of Least Squares Means vs. Placebo (3.0 mg vs. Placebo): 9.7% | Time Spent in Sleep Stage N2 Difference of Least Squares Means vs. Placebo (3.0 mg vs. Placebo): 108.5 min | Total Sleep Time (TST) Difference of Least Squares Means vs. Placebo (3.0 mg vs. Placebo): 46.4 min | Wake after Sleep Onset (WASO) Difference of Least Squares Means vs. Placebo (3.0 mg vs. Placebo): -46.4 min | WASO, decrease in the difference of LSMs (3.0 mg vs. placebo): 46.4 min | Latency to Persistent Sleep (LPS) Least Squares Means (STDE) (6.0 mg oral): −31.7 (2.78) min | Sleep Efficiency (SE) Least Squares Means (STDE) (6.0 mg oral): 19.0 (1.02) % | Time Spent in Sleep Stage N2 Least Squares Means (STDE) (6.0 mg oral): 146.3 (5.5) min | Total Sleep Time (TST) Least Squares Means (STDE) (6.0 mg oral): 91.0 (4.88) min | Wake after Sleep Onset (WASO) Least Squares Means (STDE) (6.0 mg oral): −63.5 (4.54) min | Latency to Persistent Sleep (LPS) Difference of Least Squares Means vs. Placebo (6.0 mg vs. Placebo): -3.2 min | Sleep Efficiency (SE) Difference of Least Squares Means vs. Placebo (6.0 mg vs. Placebo): 11.0% | Time Spent in Sleep Stage N2 Difference of Least Squares Means vs. Placebo (6.0 mg vs. Placebo): 122.8 min | Total Sleep Time (TST) Difference of Least Squares Means vs. Placebo (6.0 mg vs. Placebo): 52.9 min | Wake after Sleep Onset (WASO) Difference of Least Squares Means vs. Placebo (6.0 mg vs. Placebo): -50.8 min | WASO, decrease in the difference of LSMs (6.0 mg vs. placebo): 50.8 min | Sleep Efficiency vs placebo [1]: significantly increased | Total Sleep Time vs placebo [1]: significantly increased | Wake after Sleep Onset vs placebo [1]: significantly decreased | amount of time spent in sleep Stage N2 vs placebo [1]: significantly increased | Latency to Persistent Sleep vs placebo (any of the treatment groups (0.5, 1.0, 3.0, 6.0 mg)): not significantly different

Source: US11576913B2 (priority 2018, dated 2023)
